# From article PMC3673949, “Small Molecule R1498 as a Well-Tolerated and Orally Active Kinase Inhibitor for Hepatocellular Carcinoma and Gastric Cancer Treatment via Targeting Angiogenesis and Mitosis Pathways” (PLoS ONE, 2013)
# Where two headings read alike, the source gives them in different places.
# How the values were obtained:
# [1] = Single dose pharmacokinetic (SDPK) study; format: in vivo; details: Nude Mouse
# Experimental: Before the pharmacokinetic study, animals were randomly assigned to the sampling groups (3 animals per time point). Ten additional mice were used to collected plasma blank for calibration curves. The mice were fasted overnight before oral administration. […] The plasma samples and the dose formulation were stored at −20°C until bioanalysis. The data acquisition and control system were created using Analyst 1.4 software from ABI Inc. The concentrations in plasma below the limit of quantitation (LOQ = 1 ng/mL) were designated as zero. […] For rat, dog and monkey SDPK, the blood samples were collected from jugular vein puncture.
# [2] = system: phospho-Aurora kinase A (T288); assay: Immunofluorescence / western blot of Aurora A activity marker in SGC-7901; format: cell-based, human
# Experimental: (§1) Cell lysate was prepared in RIPA buffer and quantified by the bicinchoninic acid (BCA) method (Pierce, Rockford, IL). Thirty micrograms of protein per sample was loaded onto a 4∼12% NuPAGE® Novex SDS gel (Invitrogen). The protein was transferred by an iBlot® dry blotting device (Invitrogen) onto nitrocellulose membranes. After blocking nonspecific binding with TBS/Tween20 (0.1%) (TBS/T) containing 5% non-fat milk for 1 h at room temperature, the membrane was incubated in phospho-Aurora A (Thr288) (C39D8) rabbit monoclonal antibody (Cell Signaling Technology, CST #3079, Beverly, MA) or phospho-Histone H3 (Ser10) rabbit polyclonal antibody (CST#9701) (1∶1000 in TBS/T containing 3% bovine serum albumin (BSA), and gently shaken at 4°C overnight. The membrane was washed with TBS/T three times to remove the unbound antibody, then incubated with the secondary antibody (HRP-conjugated goat anti-mouse IgG or goat anti-rabbit IgG, 1∶10000, KangChen Biotech, Shanghai, China) for 1 h at room temperature, respectively. Protein bands were visualized with an enhanced chemiluminescence (ECL) kit (Pierce, Rockford, IL). […]
# [3] = Plasma and tumor exposure at steady state in xenograft-bearing mice; format: in vivo, nude mice; set-up: Tumor AUC @ SS: unit not given here; details: for AUC: nude, mouse, po, read-out: Plasma AUC @ SS
# Source text: Supplementary file pone.0065264.s004.doc: Table S3 ED60/90 estimation from the R1498 exposure at steady state in tumors. The exposure in plasma and tumor at steady state were plot against tumor growth inhibiton rate to estimate the ED60/E90 doses. (DOC) Click here for additional data file.
# [4] = system: CD31; assay: Immunohistochemistry of BEL-7402 tumors, angiogenesis marker; format: in vivo, BALB/C nu/nu nude mice; details: BEL-7402 tumors from efficacy study
# Experimental: The 8 µm paraffin embedded tumor tissue slides prepared from tumor of in vivo efficacy studies were heated in a dry oven at 60°C for 1 hour, then deparaffinized and hydrolyzed by Leica autostainer XL ST5010 at room temperature. Antigen retrieval was carried out at 95∼99°C in citrate buffer (0.01 M, pH 6.0) heated by a medical microwave at 92–98°C for 5 min, then cooled down to room temperature. Then peroxidase-blocking reagent (DAKO, DK-2600, Glostrup Denmark) was applied to quench the endogenous peroxidase. The slides were incubated in blocking serum for 20 min, then covered by 100 µL phospho-Aurora A (Thr288) (C39D8) rabbit mAb (CST #3079, 1∶200 in TBS/T) or rabbit anti-human CD31 polyclonal antibody (Santa Cruz Biotech, sc-8306, Santa Cruz, CA, USA; 1∶200 in TBS/T) at 4°C overnight, then incubated in 100 µL DAKO Envision+/HRP, rabbit/mouse after being washed thoroughly with TBS. One hundred micro liters of substrate-chromogenic solution (DAB) were applied to the slides and incubated at room temperature for 10 min. The slides were rinsed gently with tap water for 15 min. Counterstain and dehydration was performed by XL ST5010 at room temperature. Finally, the slides were mounted with Permount mounting medium (Fisher Scientific, Miami, FL).
# [5] = system: BEL-7402 xenograft; assay: Xenograft efficacy study; format: in vivo, BALB/C nu/nu nude mice
# Experimental: (§2) Tumor cells were inoculated into the right flank of BALB/C nu/nu female nude mice (5∼6 weeks, 16∼18 g, obtained from Sino-British SIPPR/BK Lab. Animal Ltd, Shanghai, China) at optimal density based on our in-house validation study. After the tumor was established and reached 100∼150 mm^3, the mice were randomized into ten mice per group and received treatment according to the schedule. The tumor growth was recorded three times a week with the measurement of length (L) and width (W) by caliper, and calculated as tumor volume (TV, mm^3) = 0.5*L*W*W (mm). […] The tumor regression of individual mouse was defined - the tumor volume at the end was less than the tumor volume when treatment was initiated.
# [6] = system: HCCLM3 xenograft; assay: Xenograft efficacy study; format: in vivo, BALB/C nu/nu nude mice; details: HCCLM3, 12.5 mg/kg twice a day per oral gavage
# Experimental: as §2
# [7] = system: phospho-histone H3 (S10); assay: Immunofluorescence / western blot of Aurora B activity marker in SGC-7901; format: cell-based, human
# Experimental: as §1
# [8] = SGC-7901 synchronized with nocodazole, various concentrations, acute treatment
compound,measurement,setting,value
COc1ccc2c(c1)C(c1ccccc1Cl)=Nc1c(n[nH]c1C)N2 [R1498],Oral BA,"[1]; 10-100 mg/kg, micronized API suspension",44-92 (10-100 mg/kg) %
same,clearance,"[1]; male, plasma, iv, 2 mg/kg, single dose",6.3 mL/min/kg
same,Vd,"[1]; male, plasma, iv, 2 mg/kg, single dose, read-out: Vdss",2 L/kg
same,half-life,"[1]; male, plasma, iv 2 mg/kg",4 h
same,Aurora A T288 green foci in mitotic cells (immunofluorescence),"[2]; SGC-7901, 5 µM, 24 h",became weaker or disappeared
same,phosphorylation of phospho-Aurora kinase A (T288) (western blot),[2]; [8],decreased in a concentration-dependent manner
same,Tumor AUC @ SS,"[3]; BEL-7402, 3.125 mpk, bid, PO",2219
same,Tumor AUC @ SS,"[3]; BEL-7402, 6.25 mpk, bid, PO",6713
same,Tumor AUC @ SS,"[3]; BEL-7402, 12.5 mpk, bid, PO",23886
same,Tumor AUC @ SS,"[3]; BEL-7404, 3.125 mpk, bid, PO",9251
same,Tumor AUC @ SS,"[3]; BEL-7404, 6.25 mpk, bid, PO",17558
same,Tumor AUC @ SS,"[3]; BEL-7404, 12.5 mpk, bid, PO",37142
same,Tumor AUC @ SS,"[3]; BEL-7404, 12.5 mpk, single dose, PO (PK arm)",30996
same,Tumor AUC @ SS,"[3]; BGC-823 (model cell empty, from line above), 25 mpk, single dose, PO (PK arm)",49597
same,Tumor AUC @ SS,"[3]; BGC-823, 6.25 mpk, bid, PO",9906
same,Tumor AUC @ SS,"[3]; BGC-823, 12.5 mpk, bid, PO",39971
same,Tumor AUC @ SS,"[3]; BGC-823, 25 mpk, bid, PO",70897
same,Tumor AUC @ SS,"[3]; SGC-7901 (model cell empty, from line above), 25 mpk, single dose, PO (PK arm)",147592
same,Tumor AUC @ SS,"[3]; SGC-7901, 6.25 mpk, bid, PO",25249
same,Tumor AUC @ SS,"[3]; SGC-7901, 12.5 mpk, bid, PO",48130
same,Tumor AUC @ SS,"[3]; SGC-7901, 25 mpk, bid, PO",78767
same,AUC,"[3]; in vivo, 12.5 mg/kg, BEL-7402, 12.5 mpk, bid, PO",26100 ng·h/mL
same,AUC,"[3]; in vivo, 12.5 mg/kg, BEL-7404, 12.5 mpk, bid, PO",21600 ng·h/mL
same,AUC,"[3]; in vivo, 12.5 mg/kg, BEL-7404, 12.5 mpk, single dose, PO (PK arm)",15200 ng·h/mL
same,AUC,"[3]; in vivo, 12.5 mg/kg, BGC-823, 12.5 mpk, bid, PO",31100 ng·h/mL
same,AUC,"[3]; in vivo, 12.5 mg/kg, SGC-7901, 12.5 mpk, bid, PO",26900 ng·h/mL
same,AUC,"[3]; plasma, 3.125 mg/kg, BEL-7402, 3.125 mpk, bid, PO",5380 ng·h/mL
same,AUC,"[3]; plasma, 3.125 mg/kg, BEL-7404, 3.125 mpk, bid, PO",3560 ng·h/mL
same,AUC,"[3]; plasma, 6.25 mg/kg, BEL-7402, 6.25 mpk, bid, PO",12600 ng·h/mL
same,AUC,"[3]; plasma, 6.25 mg/kg, BEL-7404, 6.25 mpk, bid, PO",6560 ng·h/mL
same,AUC,"[3]; plasma, 6.25 mg/kg, BGC-823, 6.25 mpk, bid, PO",10800 ng·h/mL
same,AUC,"[3]; plasma, 6.25 mg/kg, SGC-7901, 6.25 mpk, bid, PO",11400 ng·h/mL
same,AUC,"[3]; plasma, 25 mg/kg, BGC-823 (model cell empty, from line above), 25 mpk, single dose, PO (PK arm)",73300 ng·h/mL
same,AUC,"[3]; plasma, 25 mg/kg, BGC-823, 25 mpk, bid, PO",43300 ng·h/mL
same,AUC,"[3]; plasma, 25 mg/kg, SGC-7901 (model cell empty, from line above), 25 mpk, single dose, PO (PK arm)",70100 ng·h/mL
same,AUC,"[3]; plasma, 25 mg/kg, SGC-7901, 25 mpk, bid, PO",47900 ng·h/mL
same,CD31 staining in tumors,[4],decreased in a dose-dependent manner
same,Final TGI%,"[5]; BEL-7402, 25 mg/kg twice a day per oral gavage, day of study termination",102%
same,Body weight changes%,"[5]; BEL-7402, 25 mg/kg twice a day per oral gavage, before vs after treatment",2%
same,Tumor Regression,"[5]; BEL-7402, 25 mg/kg twice a day per oral gavage, mice with regression/group",8/10
same,Final TGI%,"[5]; BEL-7402, 3.125 mpk, bid, PO",56%
same,Final TGI%,"[5]; BEL-7402, 6.25 mpk, bid, PO",69%
same,Final TGI%,"[5]; BEL-7402, 12.5 mpk, bid, PO",90%
same,Final TGI%,[6]; day of study termination,81%
same,Body weight changes%,[6]; before vs after treatment,15.3%
same,Tumor Regression,[6]; mice with regression/group,0/10
same,phospho-histone H3 (S10) (immunofluorescence),"[7]; SGC-7901, 5 µM, 24 h",decreased sharply
same,phosphorylation of phospho-histone H3 (S10) (western blot),[7]; [8],decreased in a concentration-dependent manner
